The text below walks through data of US9987276B2 (Celgene CAR LLC, priority 2008, dated 2018).

In one assay the target is ITK (Homo sapiens (Human), UniProt Q08881). The experiment in a line: Omnia assay for potency assessment against active forms of ITK kinase. The class given is biochemical. The note with it: [ITK]=10 nM, [ATP]=25, [Y6-Sox]=10 μM; read-out: ITK Inhibition. Here is the method:
[ITK]=10 nM, [ATP]=25 [Y6-Sox]=10 μM (ATP KMapp=33 μM).

The target of the next assay is BTK (Homo sapiens (Human), UniProt Q06187). Kind of assay: Omnia assay for potency assessment against BTK. The class given is biochemical. The note with it: [BTK]=5 nM, Omnia assay; read-out: BTK Inhibition (IC50). The method, then:
The modified BTK-optimized reagent conditions for the above protocol are:
[BTK]=5 nM, [ATP]=[…], [Y5-Sox]=[…] (ATP KMapp˜[…]).

Another assay concerns the target EGFR-WT (Homo sapiens (Human), UniProt P00533). Kind of assay: Omnia assay for potency assessment against EGFR (WT).
[1] abbreviates: read-out: EGFR (wild type inhibition), EGFR wild type.

Where two headings read alike, the source gives them in different places.

Sequence of ITK (Q08881 whole entry): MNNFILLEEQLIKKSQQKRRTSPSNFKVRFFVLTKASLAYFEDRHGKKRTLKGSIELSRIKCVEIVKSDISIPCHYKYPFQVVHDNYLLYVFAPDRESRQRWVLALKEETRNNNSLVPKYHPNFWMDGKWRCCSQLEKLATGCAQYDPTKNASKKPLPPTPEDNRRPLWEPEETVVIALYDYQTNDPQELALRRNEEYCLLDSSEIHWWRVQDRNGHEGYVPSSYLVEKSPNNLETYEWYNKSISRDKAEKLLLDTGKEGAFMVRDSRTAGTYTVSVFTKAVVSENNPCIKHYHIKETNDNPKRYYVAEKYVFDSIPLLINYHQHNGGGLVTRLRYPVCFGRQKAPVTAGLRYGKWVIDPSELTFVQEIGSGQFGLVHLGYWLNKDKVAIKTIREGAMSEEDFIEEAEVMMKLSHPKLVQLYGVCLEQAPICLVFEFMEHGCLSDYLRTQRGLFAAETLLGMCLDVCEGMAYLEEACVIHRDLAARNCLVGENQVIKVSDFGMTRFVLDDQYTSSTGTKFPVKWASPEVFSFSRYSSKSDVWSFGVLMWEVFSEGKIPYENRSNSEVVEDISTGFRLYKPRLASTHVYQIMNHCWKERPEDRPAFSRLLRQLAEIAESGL
Sequence of BTK (Q06187 whole entry): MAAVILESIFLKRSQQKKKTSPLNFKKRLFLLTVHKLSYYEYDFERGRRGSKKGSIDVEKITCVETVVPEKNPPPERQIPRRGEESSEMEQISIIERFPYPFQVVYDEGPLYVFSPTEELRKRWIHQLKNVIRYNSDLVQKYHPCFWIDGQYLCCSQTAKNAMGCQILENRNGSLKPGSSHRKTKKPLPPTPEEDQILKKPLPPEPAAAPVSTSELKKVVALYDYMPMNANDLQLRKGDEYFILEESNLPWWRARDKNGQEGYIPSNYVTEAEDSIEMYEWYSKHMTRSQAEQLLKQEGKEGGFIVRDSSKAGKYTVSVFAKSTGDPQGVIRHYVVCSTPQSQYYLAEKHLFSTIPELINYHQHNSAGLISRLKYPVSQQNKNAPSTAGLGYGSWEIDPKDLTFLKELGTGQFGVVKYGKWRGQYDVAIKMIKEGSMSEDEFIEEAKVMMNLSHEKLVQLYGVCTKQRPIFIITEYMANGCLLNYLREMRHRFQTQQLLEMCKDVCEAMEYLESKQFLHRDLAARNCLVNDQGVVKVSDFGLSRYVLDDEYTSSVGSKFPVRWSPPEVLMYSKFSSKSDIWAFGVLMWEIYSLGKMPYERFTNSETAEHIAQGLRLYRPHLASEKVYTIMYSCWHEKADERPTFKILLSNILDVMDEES
Sequence of EGFR-WT (P00533 668-1210): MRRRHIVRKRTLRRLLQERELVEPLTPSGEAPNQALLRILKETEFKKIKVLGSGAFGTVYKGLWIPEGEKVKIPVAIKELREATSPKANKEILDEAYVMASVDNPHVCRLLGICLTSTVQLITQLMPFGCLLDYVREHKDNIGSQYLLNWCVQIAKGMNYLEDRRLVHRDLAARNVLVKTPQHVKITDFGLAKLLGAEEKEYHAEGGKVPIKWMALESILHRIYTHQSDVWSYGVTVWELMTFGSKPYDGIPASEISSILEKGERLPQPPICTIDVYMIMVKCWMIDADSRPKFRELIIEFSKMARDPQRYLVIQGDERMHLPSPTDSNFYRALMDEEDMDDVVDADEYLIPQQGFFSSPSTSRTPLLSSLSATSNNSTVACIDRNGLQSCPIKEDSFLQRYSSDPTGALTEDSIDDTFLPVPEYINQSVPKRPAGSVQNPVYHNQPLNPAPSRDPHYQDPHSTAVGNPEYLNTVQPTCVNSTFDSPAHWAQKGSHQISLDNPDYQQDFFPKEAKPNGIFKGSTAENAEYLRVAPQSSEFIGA

On to `C=CC(=O)Nc1cccc(Nc2nc(Nc3ccc(O[C@H]4CCOC4)nc3)ncc2F)c1` [Compound I-54], for which the values for the IC50 on ITK, on BTK and against EGFR-WT were 10 to 100 nM, less than 10 nM and 10 to 100 nM, respectively.

On to `C=CC(=O)Nc1cccc(Nc2nc(Nc3ccc(OCC(C)(C)O)c(F)c3)ncc2F)c1` [Compound I-315, N-(3-(5-fluoro-2-(3-fluoro-4-(2-hydroxy-2-methylpropoxy)phenylamino)pyrimidin-4-ylamino)phenyl)acrylamide], for which the IC50 on ITK and at EGFR-WT was 10 to 100 nM throughout.

For the molecule `C=CC(=O)Nc1cccc(Nc2nc(Nc3cccc(OCCCNC(=O)CCCC[C@@H]4SC[C@@H]5NC(=O)N[C@@H]54)c3)ncc2C)c1` [Compound I-237, N-(3-(3-(4-(3-acrylamidophenylamino)-5-methylpyrimidin-2-ylamino)phenoxy)propyl)-5-((3aS,4S,6aR)-2-oxohexahydro-1H-thieno[3,4-d]imidazol-4-yl)pentanamide], the values for the IC50 at ITK, on BTK and at EGFR-WT were less than 10 nM, less than 10 nM and 10 to 100 nM, respectively.

With `C=CC(=O)Nc1cccc(Nc2nc(Nc3ccc(OCC4CCN(C)CC4)cc3)ncc2F)c1` [Compound I-90, N-(3-(5-fluoro-2-(4-((1-methylpiperidin-4-yl)methoxy)phenylamino)pyrimidin-4-ylamino)phenyl)acrylamide], the IC50 at ITK, on BTK and on EGFR-WT (setting [1]) was less than 10 nM each time.

Regarding `C=C(C)C(=O)c1cccc(Nc2nc(Nc3ccc(OCCOC)c(F)c3)ncc2F)c1` [Compound I-322, 1-(3-(5-fluoro-2-(3-fluoro-4-(2-methoxyethoxy)phenylamino)pyrimidin-4-ylamino)phenyl)-2-methylprop-2-en-1-one], the IC50 is less than 10 nM at ITK, less than 10 nM at BTK and 10 to 100 nM at EGFR-WT.

As to `COCCOc1ccc(Nc2ncc(F)c(Nc3cccc(NC(=O)/C=C/CN4CC[C@@H](O)C4)c3)n2)cc1` [Compound I-89, (R,E)-N-(3-(5-fluoro-2-(4-(2-methoxyethoxy)phenylamino)pyrimidin-4-ylamino)phenyl)-4-(3-hydroxypyrrolidin-1-yl)but-2-enamide], the IC50 at ITK is 10 to 100 nM; on BTK, less than 10 nM; at EGFR-WT it was 10 to 100 nM.

As to `C=CC(=O)Nc1cccc(Nc2nc(Nc3ccc(Cl)c(OC(C)CO)c3)ncc2F)c1` (stereo not drawn) [Compound I-337, N-(3-(2-(4-chloro-3-(1-hydroxypropan-2-yloxy)phenylamino)-5-fluoropyrimidin-4-ylamino)phenyl)acrylamide], the IC50 was 10 to 100 nM at ITK, less than 10 nM at BTK and 10 to 100 nM at EGFR-WT.

As to `C=CC(=O)Nc1cccc(Nc2nc(Nc3ccc(N4CCS(=O)(=O)CC4)nc3)ncc2F)c1` [Compound I-72, N-(3-(5-fluoro-2-(6-(1,1-dioxidothiomorpholin-4-yl)pyridin-3-ylamino)pyrimidin-4-ylamino)phenyl)acrylamide], the IC50 at ITK, at BTK and at EGFR-WT (setting [1]) was less than 10 nM throughout.

With `C=CC(=O)Nc1cccc(Nc2nc(Nc3cccc(OCCCNC(=O)OC(C)(C)C)c3)ncc2F)c1` [Compound I-183, tert-butyl 3-(3-(4-(3-acrylamidophenylamino)-5-fluoropyrimidin-2-ylamino)phenoxy)propylcarbamate], the figures for the IC50 on ITK, at BTK and on EGFR-WT (setting [1]) were 100 to 1000 nM, less than 10 nM and 1000 to 10000 nM, respectively.

As to `C=CC(=O)Nc1cccc(Nc2nc(Nc3ccc(Cl)c(OC(C)(C)CO)c3)ncc2F)c1` [Compound I-336, N-(3-(2-(4-chloro-3-(1-hydroxy-2-methylpropan-2-yloxy)phenylamino)-5-fluoropyrimidin-4-ylamino)phenyl)acrylamide], the IC50 on ITK was 100 to 1000 nM; on BTK, less than 10 nM; at EGFR-WT, 100 to 1000 nM.

As for `C=CC(=O)Nc1cccc(Nc2nc(Nc3ccc(OC(C)CO)c(F)c3)ncc2F)c1` (stereo not drawn) [Compound I-333, N-(3-(5-fluoro-2-(3-fluoro-4-(1-hydroxypropan-2-yloxy)phenylamino)pyrimidin-4-ylamino)phenyl)acrylamide], the IC50 on ITK is 10 to 100 nM; at BTK, less than 10 nM; at EGFR-WT it was 10 to 100 nM.

In the case of `C=CC(=O)Nc1cccc(Nc2nc(Nc3ccc(O[C@@H]4CCOC4)nc3)ncc2F)c1` [Compound I-69, (R)—N-(3-(5-fluoro-2-(6-(tetrahydrofuran-3-yloxy)pyridin-3-ylamino)pyrimidin-4-ylamino)phenyl)acrylamide], the IC50 was 10 to 100 nM at ITK, less than 10 nM at BTK and 10 to 100 nM against EGFR-WT.

Turning to `C=CC(=O)Nc1cccc(Nc2nc(Nc3ccc(OCCOCCNC(=O)OC(C)(C)C)c(F)c3)ncc2F)c1` [Compound I-356, tert-butyl 2-(2-(4-(4-(3-acrylamidophenylamino)-5-fluoropyrimidin-2-ylamino)-2-fluorophenoxy)ethoxy)ethylcarbamate], the IC50 is 10 to 100 nM on ITK, less than 10 nM on BTK and 100 to 1000 nM against EGFR-WT.

Turning to `C=CC(=O)N1CCc2ccc(Nc3nc(Nc4ccc(OCCOC)cc4)ncc3F)cc21` [Compound I-94, 1-(6-(5-fluoro-2-(4-(2-methoxyethoxy)phenylamino)pyrimidin-4-ylamino)indolin-1-yl)prop-2-en-1-one], the IC50 is 10 to 100 nM on ITK, less than 10 nM at BTK and 100 to 1000 nM against EGFR-WT.

Turning to `C=CC(=O)Nc1cccc(Nc2nc(Nc3cccc(OCC4CCCN(C)C4)c3)ncc2F)c1` (stereo not drawn) [Compound I-76, N-(3-(5-fluoro-2-(3-((1-methylpiperidin-3-yl)methoxy)phenylamino)pyrimidin-4-ylamino)phenyl)-acrylamide], the IC50 at ITK, at BTK and at EGFR-WT (setting [1]) was less than 10 nM each time.

`C=CC(=O)Nc1cccc(Nc2nc(Nc3ccc4c(cnn4C)c3)ncc2F)c1` [Compound I-155]: the IC50 on ITK, on BTK and at EGFR-WT (setting [1]) was less than 10 nM in each case.

For the molecule `C=C(C)C(=O)c1ccc(Nc2nc(Nc3ccc(OCCOC)c(F)c3)ncc2F)cc1` [Compound I-324, 1-(4-(5-fluoro-2-(3-fluoro-4-(2-methoxyethoxy)phenylamino)pyrimidin-4-ylamino)phenyl)-2-methylprop-2-en-1-one], the results for the IC50 on ITK, at BTK and against EGFR-WT were less than 10 nM, less than 10 nM and 10 to 100 nM, respectively.

Regarding `C=CC(=O)Nc1cccc(Nc2nc(Nc3cccc(OCCCn4ccnc4)c3)ncc2F)c1` [Compound I-204, N-(3-(2-(3-(3-(1H-imidazol-1-yl)propoxy)phenylamino)-5-fluoropyrimidin-4-ylamino)phenyl)acrylamide], the IC50 on ITK and against EGFR-WT was 10 to 100 nM each time.

On to `C=CC(=O)N(C)Cc1ccc(Oc2nc(Nc3cccc(OCCN4CCCC4=O)c3)ncc2F)cc1` [Compound I-146, N-(4-(5-fluoro-2-(3-(2-(2-oxopyrrolidin-1-yl)ethoxy)phenylamino)pyrimidin-4-yloxy)benzyl)-N-methylacrylamide], for which the IC50 at ITK was 10 to 100 nM; at BTK, less than 10 nM.

For `C=CC(=O)Nc1cccc(Nc2nc(Nc3cccc(OCCCNC(=O)CCCC(=O)NCCCOCCOCCOCCCNC(=O)CCCC[C@H]4SC[C@H]5NC(=O)N[C@H]54)c3)ncc2C)c1` [Compound I-215, N^1-(3-(3-(4-(3-acrylamidophenylamino)-5-methylpyrimidin-2-ylamino)phenoxy)propyl)-N^5-(15-oxo-19-((3aR,4R,6aS)-2-oxohexahydro-1H-thieno[3,4-d]imidazol-4-yl)-4,7,10-trioxa-14-azanonadecyl)glutaramide], the IC50 at ITK was 10 to 100 nM; at BTK it was less than 10 nM; at EGFR-WT, 10 to 100 nM.

Turning to `C=C(C)C(=O)Cc1ccc(Nc2nc(Nc3ccc(OCCOC)c(F)c3)ncc2F)cc1` [Compound I-329, 1-(4-(5-fluoro-2-(3-fluoro-4-(2-methoxyethoxy)phenylamino)pyrimidin-4-ylamino)phenyl)-3-methylbut-3-en-2-one], the figures for the IC50 at ITK, at BTK and against EGFR-WT were less than 10 nM, less than 10 nM and 10 to 100 nM, respectively.

For the molecule `C=CC(=O)Nc1cccc(Oc2nc(Nc3cccc(OC)c3)ncc2C(=O)Nc2ccccc2)c1` [Compound I-200, 4-(3-acrylamidophenoxy)-2-(3-methoxyphenylamino)-pyrimidine-5-carboxylic acid phenylamide], the IC50 on ITK is greater than 10000 nM; on BTK it was less than 10 nM; at EGFR-WT (setting [1]), less than 10 nM.

`C=CC(=O)Nc1cccc(Nc2nc(Nc3ccc(OCC(C)(C)O)cc3)ncc2F)c1` [Compound I-73, N-(3-(5-fluoro-2-(4-(2-hydroxy-2-methylpropoxy)phenylamino)pyrimidin-4-ylamino)phenyl)acrylamide]: the IC50 on ITK and at BTK was less than 10 nM throughout.

For the molecule `C=CC(=O)Nc1cccc(Nc2nc(Nc3cccc(OCCCS(C)(=O)=O)c3)ncc2F)c1` [Compound I-138, 4-(3-acrylamidophenylamino)-5-fluoro-2-(3-(3-(methylsulfonyl)propoxy)phenylamino)-pyrimidine], the IC50 at ITK and against EGFR-WT was 10 to 100 nM each time.

As for “N^1-(2-(2-(4-(4-(3-acrylamidophenylamino)-5-fluoropyrimidin-2-ylamino)-2-fluorophenoxy)ethoxy)ethyl)-N^5-(15-oxo-18-((3aR,4R,6aS)-2-oxohexahydro-1H-thieno[3,4-d]imidazol-4-yl)-4,7,10-trioxa-14-azaoctadecyl)glutaramide [Compound I-362]”, the IC50 is 10 to 100 nM at ITK and less than 10 nM on BTK.
